One assay deals with WM-266-4 cells. Kind of assay: Cell Proliferation Inhibitory Test. The following applies: Homo sapiens, 72 h, cultured three days with test compound, MTT, read-out: 50% cell proliferation inhibitory activity (GI50 value). Format: cell-based. The method in brief:
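Cells cultured overnight, then exposed to serially diluted compound for three days; cell amount read by MTT. GI50 solved from 100×[(T−T0)/(C−T0)]=50, with T0 the value at time of compound addition and C the untreated three-day control.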

In the next assay the target is T1, human mTOR (Homo sapiens, UniProt P42345).
T1 construct: the portion corresponding to 1362-2549aa at the C terminus of human mTOR; made in house
T1 sequence (P42345 1362-2549): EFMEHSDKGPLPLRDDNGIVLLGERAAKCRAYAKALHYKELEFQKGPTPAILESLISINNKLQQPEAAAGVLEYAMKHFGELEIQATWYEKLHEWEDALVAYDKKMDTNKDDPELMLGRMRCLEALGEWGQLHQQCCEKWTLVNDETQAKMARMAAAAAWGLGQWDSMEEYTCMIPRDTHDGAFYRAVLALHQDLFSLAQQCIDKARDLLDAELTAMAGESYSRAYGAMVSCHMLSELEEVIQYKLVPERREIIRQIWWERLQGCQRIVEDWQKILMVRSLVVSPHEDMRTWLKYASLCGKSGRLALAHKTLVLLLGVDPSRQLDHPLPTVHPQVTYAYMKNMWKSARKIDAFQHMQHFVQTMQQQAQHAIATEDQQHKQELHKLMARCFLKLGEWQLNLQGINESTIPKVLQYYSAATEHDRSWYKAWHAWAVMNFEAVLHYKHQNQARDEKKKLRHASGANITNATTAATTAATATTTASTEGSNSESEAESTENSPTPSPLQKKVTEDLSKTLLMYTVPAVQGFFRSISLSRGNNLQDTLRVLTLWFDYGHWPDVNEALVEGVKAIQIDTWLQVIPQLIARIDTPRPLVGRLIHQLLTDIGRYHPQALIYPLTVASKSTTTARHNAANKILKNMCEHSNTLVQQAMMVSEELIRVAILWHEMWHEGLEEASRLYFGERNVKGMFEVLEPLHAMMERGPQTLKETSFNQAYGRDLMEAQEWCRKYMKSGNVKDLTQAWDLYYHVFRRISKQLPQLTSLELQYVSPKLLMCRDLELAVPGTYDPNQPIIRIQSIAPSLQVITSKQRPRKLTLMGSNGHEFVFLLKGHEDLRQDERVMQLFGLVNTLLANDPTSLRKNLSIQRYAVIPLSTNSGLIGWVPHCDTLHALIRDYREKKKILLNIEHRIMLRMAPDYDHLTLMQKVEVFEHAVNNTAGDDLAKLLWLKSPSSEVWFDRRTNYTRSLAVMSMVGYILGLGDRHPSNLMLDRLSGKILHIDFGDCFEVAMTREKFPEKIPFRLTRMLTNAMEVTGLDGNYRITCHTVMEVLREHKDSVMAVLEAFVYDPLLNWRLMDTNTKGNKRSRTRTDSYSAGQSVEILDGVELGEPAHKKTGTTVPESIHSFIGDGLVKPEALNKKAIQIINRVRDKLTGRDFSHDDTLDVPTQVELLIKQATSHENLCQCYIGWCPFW
Kind of assay: mTOR Kinase Activity Inhibition Test. Format: biochemical. Particulars: His-tagged mTOR (1362C), biotinylated peptide substrate, ATP, 3 hours at room temperature, fluorescence resonance energy transfer 665 nm/620 nm; read-out: IC50 value of mTOR enzyme inhibitory activity. The method in brief:
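Purified His-tagged human mTOR (1362–2549aa, from HEK293) was used with biotinylated peptide (8 μg/mL in enzyme solution) in HEPES pH 7.5 with 20 mM MnCl2. Compounds were diluted in 20 μM ATP solution, and the reaction ran 3 h at RT. Phospho-S6K(Thr389) HTRF was read as the 665/620 nm ratio, and IC50 came from % inhibition versus controls.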

GI50 and IC50 data for 27 compounds are collected here from US8436012B2, “Imidazopyridin-2-one derivatives” (Daiichi Sankyo Company, Limited, priority 2008, dated 2013).

Bounds are passed on as bounds.

Consider `Cc1c[nH]c2ncc(-c3cnc4[nH]c(=O)n(C[C@H]5COCCO5)c4c3)cc12` [Example 43, 1-[(2S)-1,4-Dioxan-2-ylmethyl]-6-(3-methyl-1H-pyrrolo[2,3-b]pyridin-5-yl)-1,3-dihydro-imidazo[4,5-b]pyridin-2-one], for which the GI50 with WM-266-4 cells was less than 3 µM. The IC50 at human mTOR was less than 0.05 µM.

Turning to `CC(C)c1c[nH]c2ncc(-c3cnc4[nH]c(=O)n(CC5CCOCC5)c4c3)cc12` [Example 90, 6-{3-Isopropyl-1H-pyrrolo[2,3-b]pyridin-5-yl}-1-(tetrahydro-2H-pyran-4-ylmethyl)-1,3-dihydro-2H-imidazo[4,5-b]pyridin-2-one], the GI50 with WM-266-4 cells is less than 3 µM. In addition, the concentration for half-maximal inhibition (IC50) at human mTOR is less than 0.05 µM.

For the compound `CN1CCC(Cn2c(=O)[nH]c3ncc(-c4cnc5[nH]ccc5c4)cc32)CC1` [Example 56, 1-[(1-Methylpiperidin-4-yl)methyl]-6-(1H-pyrrolo[2,3-b]pyridin-5-yl)-1,3-dihydro-2H-imidazo[4,5-b]pyridin-2-one], the GI50 with WM-266-4 cells was 3 to 25 µM. Also, the IC50 on human mTOR fell in the range of 0.1 to 5 µM.

Consider `O=c1[nH]c2ncc(-c3cnc4[nH]ccc4c3)cc2n1CC1CCOC1` (stereo not drawn) [Example 107, 6-(1H-Pyrrolo[2,3-b]pyridin-5-yl)-1-(tetrahydrofuran-3-ylmethyl)-1,3-dihydro-2H-imidazo[4,5-b]pyridin-2-one], for which, in the assay on WM-266-4 cells, the GI50 was less than 3 µM. The IC50 at human mTOR was less than 0.05 µM.

On to `CO[C@H]1CCO[C@@H](Cn2c(=O)[nH]c3ncc(-c4cnc5[nH]ccc5c4)cc32)C1` (racemic) [Example 114, 2,6-Anhydro-1,3,5-trideoxy-4-O-methyl-1-[2-oxo-6-(1H-pyrrolo[2,3-b]pyridin-5-yl)-2,3-dihydro-1H-imidazo[4,5-b]pyridin-1-yl]-DL-threo-hexitol], for which the GI50 with WM-266-4 cells was less than 3 µM. Besides, at human mTOR, the IC50 was less than 0.05 µM.

Consider `CO[C@H]1COC[C@H]1Cn1c(=O)[nH]c2ncc(-c3cnc4[nH]ccc4c3)cc21` (racemic) [Example 63], for which the GI50 in the assay on WM-266-4 cells is less than 3 µM. Further, the IC50 on human mTOR is less than 0.05 µM.

For `O=c1[nH]c2ncc(-c3ccc4ncccc4c3)cc2n1CC1CCOCC1` [Example 10, 6-Quinolin-6-yl-1-(tetrahydro-2H-pyran-4-ylmethyl)-1,3-dihydro-2H-imidazo[4,5-b]pyridin-2-one], the GI50 in the assay with WM-266-4 cells fell in the range of 3 to 25 µM. Also, at human mTOR, the IC50 is less than 0.05 µM.

Regarding `CO[C@H]1CCC[C@@H](Cn2c(=O)[nH]c3ncc(-c4cnc5[nH]ccc5c4)cc32)C1` (racemic) [Example 105, 1-{[cis-3-Methoxycyclohexyl]methyl}-6-(1H-pyrrolo[2,3-b]pyridin-5-yl)-1,3-dihydro-2H-imidazo[4,5-b]pyridin-2-one], the GI50 in the assay with WM-266-4 cells was less than 3 µM. Moreover, the IC50 at human mTOR is less than 0.05 µM.

On to `O=c1[nH]c2ncc(-c3cnc4[nH]ccc4c3Cl)cc2n1CC1CCOCC1` [Example 34, 6-(4-Chloro-1H-pyrrolo[2,3-b]pyridin-5-yl)-1-(tetrahydro-2H-pyran-4-ylmethyl)-1,3-dihydro-2H-imidazo[4,5-b]pyridin-2-one], for which, in the assay with WM-266-4 cells, the GI50 is less than 3 µM. Also, the IC50 at human mTOR is less than 0.05 µM.

On to `C[C@H]1COCCN1CCn1c(=O)[nH]c2ncc(-c3cnc4[nH]ccc4c3)cc21` [Example 54, 1-{2-[(35)-3-Methylmorpholin-4-yl]ethyl}-6-(1H-pyrrolo[2,3-b]pyridin-5-yl)-1,3-dihydro-2H-imidazo[4,5-b]pyridin-2-one], for which, in the assay on WM-266-4 cells, the GI50 is less than 3 µM. Further, on human mTOR, the IC50 is less than 0.05 µM.

`CO[C@@H]1CCC[C@@H](Cn2c(=O)[nH]c3ncc(-c4cnc5[nH]ccc5c4)cc32)C1` (racemic) [Example 104, 1-{[trans-3-Methoxycyclohexyl]methyl}-6-(1H-pyrrolo[2,3-b]pyridin-5-yl)-1,3-dihydro-2H-imidazo[4,5-b]pyridin-2-one]: the GI50 with WM-266-4 cells was less than 3 µM. For the same compound, at human mTOR, the IC50 is less than 0.05 µM.

Regarding `O=c1[nH]c2ncc(-c3ccc4[nH]ccc4c3)cc2n1CCC1CCOCC1` [Example 3, 6-(1H-Indol-5-yl)-1-[2-(tetrahydro-2H-pyran-4-yl)ethyl]-1,3-dihydro-2H-imidazo[4,5-b]pyridin-2-one], in the assay on WM-266-4 cells, the GI50 is less than 3 µM. Further, the IC50 on human mTOR is less than 0.05 µM.

`CO[C@H]1CC[C@H](Cn2c(=O)[nH]c3ncc(-c4cnc5[nH]ccc5c4)cc32)CC1` [Example 98, 1-[(trans-4-Methoxycyclohexyl)methyl]-6-(1H-pyrrolo[2,3-b]pyridin-5-yl)-1,3-dihydro-2H-imidazo[4,5-b]pyridin-2-one]: the GI50 in the assay with WM-266-4 cells was less than 3 µM. Further, at human mTOR, the IC50 is less than 0.05 µM.

As for `Cc1c(-c2cnc3[nH]c(=O)n(C[C@H]4COCCO4)c3c2)cnc2[nH]ccc12` [Example 42, 1-[(2S)-1,4-Dioxan-2-ylmethyl]-6-(4-methyl-1H-pyrrolo[2,3-b]pyridin-5-yl)-1,3-dihydro-imidazo[4,5-b]pyridin-2-one], in the assay on WM-266-4 cells, the GI50 was less than 3 µM. For the same compound, the IC50 at human mTOR was less than 0.05 µM.

Take `O=c1[nH]c2ncc(-c3cnc4[nH]ccc4c3)cc2n1CCN1CCOCC1` [Example 55, 1-(2-Morpholin-4-ylethyl)-6-(1H-pyrrolo[2,3-b]pyridin-5-yl)-1,3-dihydro-2H-imidazo[4,5-b]pyridin-2-one]: in the assay with WM-266-4 cells, the GI50 is less than 3 µM. Besides, the IC50 at human mTOR is less than 0.05 µM.

As for `O=C1COC(Cn2c(=O)[nH]c3ncc(-c4cnc5[nH]ccc5c4)cc32)CN1` (stereo not drawn) [Example 110, 1-[(5-Oxomorpholin-2-yl)methyl]-6-(1H-pyrrolo[2,3-b]pyridin-5-yl)-1,3-dihydro-2H-imidazo[4,5-b]pyridin-2-one], in the assay with WM-266-4 cells, the GI50 lay within 3 to 25 µM. Further, on human mTOR, the IC50 was less than 0.05 µM.

With `Cc1nc2[nH]ccc2cc1-c1cnc2[nH]c(=O)n(C[C@H]3COCCO3)c2c1` [Example 129, 1-[(2S)-1,4-Dioxan-2-ylmethyl]-6-(6-methyl-1H-pyrrolo[2,3-b]pyridin-5-yl)-1,3-dihydro-2H-imidazo[4,5-b]pyridin-2-one], the GI50 in the assay on WM-266-4 cells was less than 3 µM. Also, the IC50 at human mTOR is less than 0.05 µM.

As for `O=c1[nH]c2ncc(-c3cnc4[nH]ccc4c3C(F)(F)F)cc2n1C[C@H]1COCCO1` [Example 122, 1-[(2S)-1,4-Dioxan-2-ylmethyl]-6-(4-(trifluoromethyl)-1H-pyrrolo[2,3-b]pyridin-5-yl)-1,3-dihydro-2H-imidazo[4,5-b]pyridin-2-one], the GI50 in the assay with WM-266-4 cells is less than 3 µM. Moreover, the IC50 at human mTOR is less than 0.05 µM.

As for `O=c1[nH]c2ncc(-c3cnc4[nH]cc(Cl)c4c3)cc2n1CC1CCOCC1` [Example 35, 6-(3-Chloro-1H-pyrrolo[2,3-b]pyridin-5-yl)-1-(tetrahydro-2H-pyran-4-ylmethyl)-1,3-dihydro-2H-imidazo[4,5-b]pyridin-2-one], the GI50 in the assay with WM-266-4 cells was less than 3 µM. For the same compound, at human mTOR, the IC50 is less than 0.05 µM.

Regarding `CN(C)c1c(-c2cnc3[nH]c(=O)n(C[C@H]4COCCO4)c3c2)cnc2[nH]ccc12` [Example 131, 6-[4-(Dimethylamino)-1H-pyrrolo[2,3-b]pyridin-5-yl]-1-[(2S)-1,4-dioxan-2-ylmethyl]-1,3-dihydro-2H-imidazo[4,5-b]pyridin-2-one], in the assay with WM-266-4 cells, the GI50 was 3 to 25 µM. At human mTOR, the IC50 lay in the range of 0.1 to 5 µM.

Take `Cc1nc2[nH]c(=O)n(C[C@H]3COCCO3)c2cc1-c1cnc2[nH]cc(F)c2c1` [Example 119, 1-[(2S)-1,4-Dioxan-2-ylmethyl]-6-(3-fluoro-1H-pyrrolo[2,3-b]pyridin-5-yl)-5-methyl-1,3-dihydro-2H-imidazo[4,5-b]pyridin-2-one]: the GI50 in the assay with WM-266-4 cells was less than 3 µM. For the same compound, at human mTOR, the IC50 was less than 0.05 µM.

On to `Cc1c(-c2cnc3[nH]c(=O)n(C[C@H]4COCCO4)c3c2)cnc2[nH]cc(F)c12` [Example 126, 1-[(2S)-1,4-Dioxan-2-ylmethyl]-6-(3-fluoro-4-methyl-1H-pyrrolo[2,3-b]pyridin-5-yl)-1,3-dihydro-2H-imidazo[4,5-b]pyridin-2-one], for which, in the assay on WM-266-4 cells, the GI50 is less than 3 µM. For the same compound, at human mTOR, the IC50 is less than 0.05 µM.

As to `O=c1[nH]c2ncc(-c3cnc4[nH]ccc4c3)cc2n1CC1(F)CCOCC1` [Example 69, 1-[(4-Fluorotetrahydro-2H-pyran-4-yl)methyl]-6-(1H-pyrrolo[2,3-b]pyridin-5-yl)-1,3-dihydro-2H-imidazo[4,5-b]pyridin-2-one], the GI50 in the assay with WM-266-4 cells is less than 3 µM. The IC50 on human mTOR was less than 0.05 µM.

Consider `O=c1[nH]c2ncc(-c3cnc4[nH]ccc4c3Cl)cc2n1C[C@H]1COCCO1` [Example 117, 6-(4-Chloro-1H-pyrrolo[2,3-b]pyridin-5-yl)-1-[(2S)-1,4-dioxan-2-ylmethyl]-1,3-dihydro-2H-imidazo[4,5-b]pyridin-2-one], for which the GI50 with WM-266-4 cells is less than 3 µM. For the same compound, on human mTOR, the IC50 was less than 0.05 µM.

Regarding `O=c1[nH]c2ncc(-c3cnc4[nH]ccc4c3)cc2n1CC1=CCCOC1` [Example 31, 1-(5,6-Dihydro-2H-pyran-3-ylmethyl)-6-(1H-pyrrolo[2,3-b]pyridin-5-yl)-1,3-dihydro-2H-imidazo[4,5-b]pyridin-2-one], the GI50 in the assay with WM-266-4 cells was less than 3 µM. Also, the IC50 on human mTOR is less than 0.05 µM.

In the case of `O=c1[nH]c2ncc(-c3ccc4[nH]ncc4c3)cc2n1CC1CCOCC1` [Example 14, 6-(1H-Indazol-5-yl)-1-(tetrahydro-2H-pyran-4-ylmethyl)-1,3-dihydro-2H-imidazo[4,5-b]pyridin-2-one], the GI50 in the assay with WM-266-4 cells was in the range of 3 to 25 µM. Further, at human mTOR, the IC50 was in the range of 0.1 to 5 µM.

Turning to `O=c1[nH]c2ncc(-c3cnc4[nH]ccc4c3)cc2n1CCN1CCNCC1` [Example 57, 1-[2-piperazin-1-ylethyl]-6-(1H-pyrrolo[2,3-b]pyridin-5-yl)-1,3-dihydro-2H-imidazo[4,5-b]pyridin-2-one], the GI50 in the assay with WM-266-4 cells was in the range of 3 to 25 µM. At human mTOR, the IC50 lay in the range of 0.05 to 0.1 µM.
